From patent US20250169499A1, “IMAZAMOX AND GLYPHOSATE FOR CONTROLLING DIGITARIA INSULARIS” (BASF AGROCHEMICAL PRODUCTS B.V., priority 2021, published 2025)

What was measured:
Assay type in all cases: in vivo, Digitaria insularis
Settings in all cases: DASH 0.5% v/v
D. insularis (perennial) = assay: Field trial, post-emergence application A (desiccation 30 days before soybean sowing), visual weed control rated 14 DAA-A
Experimental: (§1) A soil sample from the experimental site was analyzed and provided pH H2O 5.3; 0 cmolc H+Al^+3/dm^3; 4.2 cmolc/dm^3 Ca^+2; 1.6 cmolc/dm^3 Mg^+2; 242 mg/dm^3 K^+; 42.3 mg/dm^3 P; 18% sand; 15% silt and 67% clay.
(§2) For all herbicide applications, the applications were made using a backpack sprayer that was pressurized by CO2 with six flat fan nozzles XR110.015 at 3 bar, which caused the application volume to reach 150 L ha^−1.
(§3) Glyphosate was used as a commercially available soluble concentrate (SL)-formulation containing glyphosate as its potassium salt (480 g/l of glyphosate in its acid form), which is commercially available under the trade name Roundup Transorb R.
(§4) Imazamox was used as a commercially available water dispersible granule (WG)-formulation containing 700 g/Kg of imazamox, which is commercially available under the trade name Raptor® 70 DG.
(§5) In table 1, all details related to mode of application of herbicides, and climatic conditions during herbicide application are listed.
Crop sowing (in case of A and B; in case of A*, no crops were sown) was carried out under a no-tillage system, by distributing 16 seeds per meter of a M6410® soybean variety in all treatments with Raptor® 70 DG and also 16 seeds m^−1 of a second soybean cultivar (BMX Potência RR) in the remaining treatments. Immediately before sowing, the seeds of both cultivars were treated with a formulation of fipronil, pyraclostrobin and thiophanate methyl (Standak® Top; 200 mL per ha). Crop fertilization was performed with 300 kg ha^−1 of a commercial N-P-K formulation (02-20-18). […]
After the first application (application “A” and “A*”), two evaluations were performed on the effect of treatments on the weeds emerged at that application. For those evaluations, the infestation of the untreated control is used as reference. These assessments for the damage caused by the herbicides A and B, and the binary herbicide combination thereof were carried out at 14 days after application “A” (14 DAA-A) or 35 days after application “A*” (35-DAA-A*) using a scale from 0 to 100%, compared to the untreated control plants. Here, 0 means no damage and 100 means complete destruction of the plants.
The value E, which is to be expected if the activity of the individual compounds is just additive, was calculated using the method of S. R. Colby (1967) “Calculating synergistic and antagonistic responses of herbicide combinations”, Weeds 15, p. 22 ff. For two component mixtures the value E was calculated by the following formula […]
(§6) If the value observed in this manner is higher than the value E calculated according to Colby, a synergistic effect is present. […]

D. insularis (flowering) = assay: Field trial, post-emergence application B (desiccation 0 days before soybean sowing), visual weed control rated 28 DAA-B
Experimental: as §1, §2, §3, §4, §5
Crop sowing (in case of A and B; in case of A*, no crops were sown) was carried out under a no-tillage system, by distributing 16 seeds per meter of a M6410® soybean variety in all treatments with Raptor® 70 DG and also 16 seeds m^−1 of a second soybean cultivar (BMX Potência RR) in the remaining treatments. Immediately before sowing, the seeds of both cultivars were treated with a formulation of fipronil, pyraclostrobin and thiophanate methyl (Standak® Top; 200 mL per ha). Crop fertilization was performed with 300 kg ha^−1 of a commercial N-P-K formulation (02-20-18).
For the post-emergence treatment, the test plants were first grown to a height of 3 to 20 cm, depending on the plant habit, and only then treated. Here, the herbicidal compositions were suspended or emulsified in water as distribution medium and sprayed using finely distributing nozzles.
Herbicide B was formulated as 10% by weight strength suspension concentrate and introduced to the spray liquor with the amount of solvent system used for applying the active compound. […]
(§7) The value E, which is to be expected if the activity of the individual compounds is just additive, was calculated using the method of S. R. Colby (1967) “Calculating synergistic and antagonistic responses of herbicide combinations”, Weeds 15, p. […] For two component mixtures the value E was calculated by the following formula […]
as §6
(§8) The results are summarized in the following tables 2, 3 and 4 that show the herbicidal activity of the individual actives and of their combinations in post-emergence application assessed 14, 28 and 35 day after treatment (DAT), respectively.

[1] = tested on: D. insularis (early stage - 2 to 6 leaves); assay: Field trial, post-emergence application A* (no soybean sowing), visual weed control rated 35 DAA-A*
Experimental: as §1, §2
Glyphosate was used as a commercially available soluble concentrate (SL)-formulation containing glyphosate as its potassium salt (480 g/l of glyphosate in its acid form), which is commercially available under the trade name Roundup Transorb R. […]
as §7, §6, §8

Structure (SMILES) | Control (%) of D. insularis (perennial) (D. insularis (perennial); dose 1080 g ai/ha, scale 0-100% vs untreated) | Control (%) of D. insularis (flowering) (D. insularis (flowering); dose 1440 g ai/ha) | Control (%) of D. insularis (early stage - 2 to 6 leaves) ([1]; dose 1080 g ai/ha) | Control (%) of D. insularis (perennial) (D. insularis (perennial); dose 49 g ai/ha) | Control (%) of D. insularis (perennial) (D. insularis (perennial); dose 70 g ai/ha) | Control (%) of D. insularis (perennial) (D. insularis (perennial); dose 91 g ai/ha) | Control (%) of D. insularis (flowering) (D. insularis (flowering); dose 70 g ai/ha) | Control (%) of D. insularis (flowering) (D. insularis (flowering); dose 105 g ai/ha) | Control (%) of D. insularis (flowering) (D. insularis (flowering); dose 140 g ai/ha) | Control (%) of D. insularis (early stage - 2 to 6 leaves) ([1]; dose 105 g ai/ha)
O=C(O)CNCP(=O)(O)O [Herbicide A, N-(phosphonomethyl)glycine] | 5% | 45% | 5% | – | – | – | – | – | – | –
COCc1cnc(C2=NC(C)(C(C)C)C(=O)N2)c(C(=O)O)c1 (stereo not shown) [Herbicide B, 2-(4-isopropyl-4-methyl-5-oxo-2-imidazolin-2-yl)-5-(methoxymethyl)nicotinic acid] | – | – | – | 13% | 20% | 20% | 40% | 40% | 50% | 13%
